# Source: US11730792B2, “Coversin (OmCI) for the treatment of autoimmune blistering diseases: bullous pemphigoid (BP) and epidermolysis bullosa acquisita (EBA)” (VOLUTION IMMUNO PHARMACEUTICALS SA, priority 2017, dated 2023)
# “Also recorded” adds a separate entry of the source.
# T1: Ornithodoros moubata Coversin (EV576, OmCI), amino acids 19 to 168 of SEQ ID NO: 2 (SEQ ID NO: 4) (Ornithodoros moubata, UniProt Q5YD59)
# T1 sequence (Q5YD59 19-168): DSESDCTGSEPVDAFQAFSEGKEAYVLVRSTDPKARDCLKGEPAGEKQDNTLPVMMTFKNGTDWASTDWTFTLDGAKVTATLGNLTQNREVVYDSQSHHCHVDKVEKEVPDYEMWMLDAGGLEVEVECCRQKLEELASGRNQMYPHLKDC
# B1: L-Coversin: SEQ ID NO: 23; SEQ ID NO: 4 with Ala44Asn, Met116Gln, Leu117Ser, Gly121Ala, Leu122Asp, Glu123Ala, Asp149Gly (protein)
# chain: DSESDCTGSEPVDAFQAFSEGKEAYVLVRSTDPKARDCLKGEPNGEKQDNTLPVMMTFKNGTDWASTDWTFTLDGAKVTATLGNLTQNREVVYDSQSHHCHVDKVEKEVPDYEMWQSDAGADAVEVECCRQKLEELASGRNQMYPHLKGC
# modifications: Coversin variant 2
# Columns and labels:
# Experimental EBA [1] = conditions: ref [44], cited from earlier work
# [2] = target: T1, Ornithodoros moubata Coversin (EV576, OmCI), amino acids 19 to 168 of SEQ ID NO: 2 (SEQ ID NO: 4); experiment: LTB4 binding to Coversin by fluorescence titration
# Method: This may be carried out by may be carried out as follows:
# Purified 100 nM solutions of Coversin, in 2 mL PBS were applied in a quartz cuvette (10 mm path length; Hellma, Malheim, Germany) equipped with a magnetic stirrer. Temperature was adjusted to 20° C. and, after equilibrium was reached, protein Tyr/Trp fluorescence was excited at 280 nm (slit width: 15 nm). The fluorescence emission was measured at 340 nm (slit width: 16 nm) corresponding to the emission maximum. […] For calculation of the KD value, data was normalized to an initial fluorescence intensity of 100%, the inner filter effect was corrected using a titration of 3 μM N-acetyl-tryptophanamide solution and data was plotted against the corresponding ligand concentration. Then, non-linear least squares regression based on the law of mass action for bimolecular complex formation was used to fit the data with Origin software version 8.5 (OriginLab, Northampton, Mass., USA) using a published formula (Breustedt et al., 2006).
# C5 [3] = target: T2, C5 (Rattus norvegicus, UniProt P08650); experiment: Prevention of C5 cleavage by C5 convertase in rat serum; assay type: biochemical
# T2 construct: from tissue; host or cells: rat serum
# T2 sequence (P08650 19-1681): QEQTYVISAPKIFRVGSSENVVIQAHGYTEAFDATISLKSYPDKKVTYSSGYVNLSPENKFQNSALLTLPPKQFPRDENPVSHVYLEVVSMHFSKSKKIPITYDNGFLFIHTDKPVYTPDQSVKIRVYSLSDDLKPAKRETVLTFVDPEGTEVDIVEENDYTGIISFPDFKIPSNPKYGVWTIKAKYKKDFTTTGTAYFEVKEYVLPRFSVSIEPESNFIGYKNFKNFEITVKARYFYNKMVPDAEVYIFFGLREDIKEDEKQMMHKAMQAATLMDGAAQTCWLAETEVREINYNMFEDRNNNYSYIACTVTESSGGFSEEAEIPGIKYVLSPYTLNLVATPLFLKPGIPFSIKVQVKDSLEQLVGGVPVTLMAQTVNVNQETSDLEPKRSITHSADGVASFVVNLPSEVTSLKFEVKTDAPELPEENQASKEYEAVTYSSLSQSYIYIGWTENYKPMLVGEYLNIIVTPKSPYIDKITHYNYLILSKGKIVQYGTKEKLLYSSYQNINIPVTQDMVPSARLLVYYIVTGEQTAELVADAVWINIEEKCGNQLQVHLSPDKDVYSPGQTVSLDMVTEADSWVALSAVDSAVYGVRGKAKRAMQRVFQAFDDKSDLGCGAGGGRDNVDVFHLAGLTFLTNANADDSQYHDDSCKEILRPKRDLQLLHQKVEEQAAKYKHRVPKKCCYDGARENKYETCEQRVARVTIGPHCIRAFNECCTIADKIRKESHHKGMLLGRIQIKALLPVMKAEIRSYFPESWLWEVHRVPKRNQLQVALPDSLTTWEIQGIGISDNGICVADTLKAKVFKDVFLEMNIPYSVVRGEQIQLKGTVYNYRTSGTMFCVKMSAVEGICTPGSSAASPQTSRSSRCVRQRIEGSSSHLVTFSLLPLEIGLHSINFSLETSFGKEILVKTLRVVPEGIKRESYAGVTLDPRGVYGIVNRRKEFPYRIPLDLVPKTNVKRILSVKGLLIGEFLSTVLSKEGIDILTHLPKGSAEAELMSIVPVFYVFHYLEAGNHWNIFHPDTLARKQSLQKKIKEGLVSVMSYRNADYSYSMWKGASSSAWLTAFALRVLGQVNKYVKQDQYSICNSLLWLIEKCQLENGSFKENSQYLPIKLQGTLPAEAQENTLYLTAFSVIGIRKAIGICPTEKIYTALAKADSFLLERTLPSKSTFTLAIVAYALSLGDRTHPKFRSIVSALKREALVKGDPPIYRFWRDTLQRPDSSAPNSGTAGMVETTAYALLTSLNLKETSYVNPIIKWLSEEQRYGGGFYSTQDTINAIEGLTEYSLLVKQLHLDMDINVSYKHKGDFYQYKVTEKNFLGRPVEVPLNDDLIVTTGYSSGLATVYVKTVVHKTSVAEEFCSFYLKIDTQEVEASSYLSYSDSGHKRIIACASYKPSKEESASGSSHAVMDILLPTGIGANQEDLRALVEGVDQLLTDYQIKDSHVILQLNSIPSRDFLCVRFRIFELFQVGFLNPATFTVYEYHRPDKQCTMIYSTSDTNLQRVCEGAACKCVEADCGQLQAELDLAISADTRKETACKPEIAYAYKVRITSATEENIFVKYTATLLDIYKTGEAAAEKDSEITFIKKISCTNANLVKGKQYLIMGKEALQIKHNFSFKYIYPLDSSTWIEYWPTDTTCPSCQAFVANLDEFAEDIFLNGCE
# Source text: (§1) Coversin was isolated from the salivary glands of the tick Ornithodoros moubata. Coversin is an outlying member of the lipocalin family and is the first lipocalin family member shown to inhibit complement activation. Coversin inhibits the classical, alternative and lectin complement pathways by binding to C5 and preventing its cleavage by C5 convertase into C5a and C5b, thus inhibiting both the production of C5a, which is an active (e.g. proinflammatory) peptide, and the formation of the MAC.
# C5 [4] = target: T3, C5 (Mus musculus, UniProt P06684); experiment: Prevention of C5 cleavage by C5 convertase in mouse serum; assay type: biochemical
# T3 construct: from tissue; host or cells: mouse serum
# Source text: as §1
# experimental EBA [5] = experiment: Antibody transfer EBA model, Coversin administered prophylactically (Example 1); assay type: in vivo, mice; design: Two-way ANOVA, vehicle control versus Coversin: dose or concentration left out as unconfirmed; conditions: for Two-way ANOVA, vehicle control versus Coversin: combined experiments 1 and 2; for percentage ABSA: prophylactic
# Method: (§2) Antibody transfer EBA was induced using a modified version of the protocol described by Sitaru et al., 2005 [43]. Five mice were tested in each treatment group. […] Mice were injected subcutaneously twice daily with three varying doses of Coversin starting […] before the first injection of anti-Col7 IgG (day −2). This application was continued throughout the experiment until its last day on day 11. In the control groups the mice received only the vehicle subcutaneously, or 20 mg/kg methylprednisolone once daily.
# To generate antibodies directed to murine type VII collagen (“anti-COL7”), New Zealand White rabbits were immunized with 200 μg of a protein mixture containing three different recombinant proteins (“Col7A, B, and C”) derived from the non-collagenous 1 (NC1) domain of collagen VII together with incomplete Freund's adjuvant. IgGs were isolated from the serum of immunized rabbits by use of protein G, and afterwards IgGs were affinity-purified with his-Col7 to specifically obtain rabbit anti-Col7 IgG. Antibodies were quality checked by determining the titer and the potency in the cryosection assay.
# (§3) Starting on day 4, the extent of skin lesions was scored in each individual mouse every other day. […] The percentage of the total body surface affected by skin lesions (ABSA) was calculated.
# Two independent experiments were conducted.
# [6] = test system: Antibody transfer EBA-like skin inflammation; experiment: Passive EBA mouse model, Coversin administered therapeutically from day 5 (Example 2); assay type: in vivo, C57Bl/6J WT mice; conditions: for Two-way ANOVA, vehicle control versus Coversin: all doses used, N=5 per group
# Method: The study included the following experimental groups, with 5 mice in each experimental group: • 1. Vehicle (PBS) control group • 2. 125 μg/kg Coversin 2× daily s.c. • 3. 2500 μg/kg Coversin 2× daily s.c.
# Antibody transfer EBA-like skin inflammation was induced, as described in Sezin et al.
# The treatment of mice with Coversin started on Day 5 of the experiment (Day 0=day of first administration of anti-COL7 antibody). Afterwards, mice were injected 12 hourly s.c. in the scapular region with Coversin or vehicle control until the end of the experiment.
# Disease severity was scored. […] The percentage of the absolute body surface affected by skin lesions (ABSA) was calculated. To score the disease, the mice were anesthetized every other day with a mixture of ketamine/xylazine administered i.p. starting day 4 of the experiment.
# Two independent experiments were conducted according to this protocol.
# Prior to the beginning of the experiment mean weight of the mice was calculated and 2.5 mg/kg and 0.125 mg/kg of the drug were prepared freshly to a final volume of 100 μl in PBS pH 7.2. The drug was prepared freshly, twice daily, 30 minutes before the final injection into the mice. Thereafter, based on the mean weight of the mice the drug was adjusted with PBS pH 7.2 to a concentration appropriate to provide the required mg/kg dose in a final volume of 100 μl. Drug was prepared freshly twice daily, 30 minutes before the final application into the animals. As a vehicle control 100 μl of PBS pH 7.2 was injected s.c into the mice.
# ABSA between treatment groups was evaluated by two-way ANOVA conducted using GraphPad Prism 7.
# experimental EBA [7] = experiment: Experimental EBA, prophylactic PAS-L-Coversin versus Coversin (Example 4); assay type: in vivo, mice; conditions: 2.5 mg/kg Coversin; for Clinical score of experimental EBA: prophylactic
# Method: as §2, §3
# In a further experiment, the effect of PAS-L-Coversin was assessed. Mice were treated with 0.1 mg/kg, 10 mg/kg, 1 mg/kg PAS-L-Coversin, or 2.5 mg/kg Coversin, with the experiment being carried out as described above. […] The sequence of the L-Coversin sequence is a variant of the mature Coversin sequence (SEQ ID NO: 4) in which the following residues have been modified: Ala44 to Asn, Met116 to Gln, Leu117 to Ser, Gly121 to Ala, Leu122 to Asp, Glu123 to Ala and Asp149 to Gly, (referred to as variant 2, sequence is dsesdctgse pvdafqafse gkeayvlvrs tdpkardclk gepNgekqdn tlpvmmtfkn gtdwastdwt ftldgakvta tlgnitqnre vvydsqshhc hvdkvekevp dyemwQSdag ADAveveccr qkleelasgr nqmyphlkGc (SEQ ID NO:23), where the changes relative to the native Coversin sequence of SEQ ID NO:4 are in capitals). Because of the higher molecule weight of the PAS-L-Cov, 10 mg/kg PAS-L-Cov corresponds to 2.5 mg/kg Coversin. In the first experiment (FIG. 6A) the 10 mg/kg dose but not 1 mg/kg or 0.1 mg/kg dose of PAS-L-Coversin reduced ABSA compared to control. In the second experiment (FIG. 6B), the 10 mg/kg dose and the 1 mg/kg but not the 0.1 mg/kg dose of PAS-L-Coversin reduced ABSA compared to control.
# C5 [8] = target: T4, C5 (Homo sapiens, UniProt P01031); conditions: surface plasmon resonance, ref [31]; cited from earlier work
# Target sequence in this assay (P01031 19-1676): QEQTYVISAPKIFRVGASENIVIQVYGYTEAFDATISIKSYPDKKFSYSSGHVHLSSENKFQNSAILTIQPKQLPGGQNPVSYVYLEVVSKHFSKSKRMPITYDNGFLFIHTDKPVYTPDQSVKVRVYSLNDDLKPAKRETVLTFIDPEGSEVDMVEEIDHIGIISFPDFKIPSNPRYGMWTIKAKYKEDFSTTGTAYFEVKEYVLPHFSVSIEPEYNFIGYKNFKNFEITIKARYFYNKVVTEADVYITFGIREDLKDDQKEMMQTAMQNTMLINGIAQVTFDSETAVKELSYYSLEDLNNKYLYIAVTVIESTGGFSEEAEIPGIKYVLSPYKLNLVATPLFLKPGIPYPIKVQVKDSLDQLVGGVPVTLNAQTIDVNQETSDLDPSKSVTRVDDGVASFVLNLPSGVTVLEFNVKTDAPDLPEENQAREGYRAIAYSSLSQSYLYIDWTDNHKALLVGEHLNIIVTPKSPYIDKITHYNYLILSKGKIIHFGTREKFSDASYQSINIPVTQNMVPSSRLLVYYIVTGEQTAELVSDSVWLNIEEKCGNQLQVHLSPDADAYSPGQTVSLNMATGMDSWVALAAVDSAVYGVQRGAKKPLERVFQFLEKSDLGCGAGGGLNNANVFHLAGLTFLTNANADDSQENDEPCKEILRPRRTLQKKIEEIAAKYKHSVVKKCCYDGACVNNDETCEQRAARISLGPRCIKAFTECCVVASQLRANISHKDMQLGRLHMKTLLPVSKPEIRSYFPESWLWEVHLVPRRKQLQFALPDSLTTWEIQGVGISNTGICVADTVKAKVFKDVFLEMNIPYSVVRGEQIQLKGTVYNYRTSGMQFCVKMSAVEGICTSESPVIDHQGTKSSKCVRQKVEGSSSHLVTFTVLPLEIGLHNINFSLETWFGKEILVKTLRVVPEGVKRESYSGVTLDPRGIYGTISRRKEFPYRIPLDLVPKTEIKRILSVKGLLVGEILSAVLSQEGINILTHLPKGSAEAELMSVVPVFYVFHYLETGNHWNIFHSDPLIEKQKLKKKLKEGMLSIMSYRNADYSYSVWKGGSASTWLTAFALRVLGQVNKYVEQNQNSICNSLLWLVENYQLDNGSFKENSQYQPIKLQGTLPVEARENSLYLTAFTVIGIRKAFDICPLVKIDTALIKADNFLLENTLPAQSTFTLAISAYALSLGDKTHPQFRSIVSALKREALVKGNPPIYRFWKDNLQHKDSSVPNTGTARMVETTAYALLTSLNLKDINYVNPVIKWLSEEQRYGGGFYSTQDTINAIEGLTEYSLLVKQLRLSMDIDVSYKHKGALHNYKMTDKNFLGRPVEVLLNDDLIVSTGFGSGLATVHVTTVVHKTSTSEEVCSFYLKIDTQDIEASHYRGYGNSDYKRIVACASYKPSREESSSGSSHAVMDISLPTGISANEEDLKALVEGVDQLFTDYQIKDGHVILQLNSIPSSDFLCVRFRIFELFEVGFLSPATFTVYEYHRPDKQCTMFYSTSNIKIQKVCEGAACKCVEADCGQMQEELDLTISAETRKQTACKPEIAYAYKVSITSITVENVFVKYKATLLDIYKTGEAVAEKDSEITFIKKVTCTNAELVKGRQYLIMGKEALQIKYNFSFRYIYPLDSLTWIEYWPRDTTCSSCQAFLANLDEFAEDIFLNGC
# C5 [9] = target: T4, C5; experiment: Prevention of C5 cleavage by C5 convertase in human serum; assay type: biochemical; design: from tissue; host or cells: human serum
# Source text: as §1
# Target sequence in this assay (P01031 678-1676 limits assumed): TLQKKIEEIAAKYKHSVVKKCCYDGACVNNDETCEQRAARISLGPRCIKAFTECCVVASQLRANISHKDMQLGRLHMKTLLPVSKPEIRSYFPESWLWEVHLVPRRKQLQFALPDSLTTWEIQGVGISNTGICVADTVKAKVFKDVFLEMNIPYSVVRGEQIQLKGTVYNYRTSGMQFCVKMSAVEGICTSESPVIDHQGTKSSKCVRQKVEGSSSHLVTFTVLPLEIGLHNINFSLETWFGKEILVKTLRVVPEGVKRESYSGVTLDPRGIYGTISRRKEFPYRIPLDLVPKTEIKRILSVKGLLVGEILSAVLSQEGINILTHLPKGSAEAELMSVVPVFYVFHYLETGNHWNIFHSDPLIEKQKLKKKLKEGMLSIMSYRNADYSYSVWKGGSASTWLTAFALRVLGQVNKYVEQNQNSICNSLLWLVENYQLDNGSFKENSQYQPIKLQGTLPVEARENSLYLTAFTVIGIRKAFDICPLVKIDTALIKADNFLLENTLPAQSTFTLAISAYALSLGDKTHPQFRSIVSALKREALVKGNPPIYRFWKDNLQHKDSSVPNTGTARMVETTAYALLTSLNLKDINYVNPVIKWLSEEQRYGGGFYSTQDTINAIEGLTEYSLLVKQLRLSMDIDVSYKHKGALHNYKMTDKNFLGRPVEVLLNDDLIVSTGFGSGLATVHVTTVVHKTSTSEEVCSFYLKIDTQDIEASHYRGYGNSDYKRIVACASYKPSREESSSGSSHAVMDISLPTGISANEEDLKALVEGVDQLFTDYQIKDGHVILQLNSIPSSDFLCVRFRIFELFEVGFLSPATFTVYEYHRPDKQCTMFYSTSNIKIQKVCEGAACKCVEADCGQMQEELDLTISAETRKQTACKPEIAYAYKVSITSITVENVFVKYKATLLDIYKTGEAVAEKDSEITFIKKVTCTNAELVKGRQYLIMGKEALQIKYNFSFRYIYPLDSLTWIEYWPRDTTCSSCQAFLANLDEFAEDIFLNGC
# Target sequence in this assay (P01031 19-673 partner limits assumed): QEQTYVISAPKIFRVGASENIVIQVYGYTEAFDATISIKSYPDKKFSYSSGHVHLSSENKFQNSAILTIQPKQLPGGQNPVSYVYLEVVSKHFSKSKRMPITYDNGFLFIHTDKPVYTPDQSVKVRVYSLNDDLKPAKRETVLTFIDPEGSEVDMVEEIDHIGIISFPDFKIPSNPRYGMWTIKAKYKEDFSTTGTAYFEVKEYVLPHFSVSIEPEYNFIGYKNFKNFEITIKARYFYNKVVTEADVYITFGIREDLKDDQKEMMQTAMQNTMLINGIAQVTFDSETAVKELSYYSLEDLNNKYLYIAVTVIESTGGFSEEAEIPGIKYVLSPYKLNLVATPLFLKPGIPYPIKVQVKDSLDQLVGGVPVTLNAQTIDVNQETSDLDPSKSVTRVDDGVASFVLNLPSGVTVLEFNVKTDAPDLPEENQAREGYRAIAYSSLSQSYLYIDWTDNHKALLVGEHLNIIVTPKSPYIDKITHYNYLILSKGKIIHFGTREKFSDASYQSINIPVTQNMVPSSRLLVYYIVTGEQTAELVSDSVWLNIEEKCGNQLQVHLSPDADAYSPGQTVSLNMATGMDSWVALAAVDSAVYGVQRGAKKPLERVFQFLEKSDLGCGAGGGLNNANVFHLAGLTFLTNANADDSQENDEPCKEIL
# [10] = LTB4 binding of L-Coversin (method not given); conditions: mutated Coversin sequence (variant 2)
# C5 [11] = target: T4, C5; experiment: C5 binding of L-Coversin (method not given); conditions: mutated Coversin sequence (variant 2)
# Target sequence in this assay (P01031 19-1676): as the sequence (P01031 19-1676) above
molecule,measurement,setting,value
"CC(c1cc2ccccc2s1)N(O)C(N)=O (stereo not shown) [Zileuton, N-[1-(1-benzothien-2-yl)ethyl]-N-hydroxyurea]",clinical score day 7,"Experimental EBA [1]; 0.6-0.8 mg/mouse/day in drinking water, female mice, control group 9.2±0.7",5.9±0.5 % of affected surface body area
same,disease severity as compared to control group,"Experimental EBA [1]; from day 7 until end-point, 0.6-0.8 mg/mouse/day",significantly reduced disease severity
"CCCCC/C=C\C[C@@H](O)/C=C/C=C/C=C\[C@@H](O)CCCC(=O)O [LTB4, Leukotriene B4]",Kd,[2],0.2 to 0.3 nM
"Coversin: tick Ornithodoros moubata protein, amino acids 19 to 168 of SEQ ID NO: 2 (SEQ ID NO: 4); binds C5 and LTB4","IC50, binding C5 and preventing its cleavage by C5 convertase",C5 [3],approximately 0.02 mg/ml
same,"IC50, binding C5 and preventing its cleavage by C5 convertase",C5 [4],approximately 0.02 mg/ml
same,"Two-way ANOVA, vehicle control versus Coversin",experimental EBA [5]; dose 250,statistically significant difference
same,"Two-way ANOVA, vehicle control versus Coversin",experimental EBA [5]; dose 2500,statistically significant difference
same,Clinical score of experimental EBA,"experimental EBA [5]; combined results of experiments 1 and 2 (FIG. 5), all doses",ameliorated disease
same,"reduction of percentage ABSA compared with previously tested agents (Zileuton, methylprednisolone)","experimental EBA [5]; comparison with similar earlier experiments, particularly at 2.5 mg/kg and 0.25 mg/kg",to a greater degree; also recorded: greater effect
same,Clinical score of experimental EBA,"experimental EBA [5]; experiment 1 (FIG. 3), all doses of Coversin, vs vehicle control group and methylprednisolone group",ameliorated disease
same,Clinical score of experimental EBA,"experimental EBA [5]; experiment 2 (FIG. 4), all doses of Coversin, vs vehicle control group and methylprednisolone group",ameliorated disease
same,significance of effect compared to vehicle control group,"experimental EBA [5]; experiment 2 (FIG. 4), only at the 2.5 mg/kg dose",significant effect
same,difference in ABSA between vehicle and treated,"experimental EBA [5]; first experiment, 0.25 mg/kg dose, P 0.0023 by two tailed t-test",63%
same,mean ABSA score (SD),"experimental EBA [5]; first experiment, 0.25 mg/kg dose, day 10, vehicle 6.23+1.1",2.65+0.4
same,percentage ABSA,"experimental EBA [5]; first experiment, Coversin 25 μg/kg s.c. twice daily",reduced
same,percentage ABSA,"experimental EBA [5]; first experiment, Coversin 250 μg/kg s.c. twice daily",further reduced
same,percentage ABSA,"experimental EBA [5]; first experiment, Coversin 2500 μg/kg s.c. twice daily",further reduced
same,"Two-way ANOVA, vehicle control versus Coversin","[6]; Experiment 1 (FIG. 7), females",significant differences
same,ABSA,"[6]; Experiment 1, 2.5 mg/kg Coversin, vehicle about 7%",effective in reducing ABSA
same,"skin inflammation measured by absolute body surface area affected (ABSA), dose dependence","[6]; Experiment 1, females, 125 and 2500 μg/kg 2× daily s.c. from day 5",dose-dependently ameliorated skin inflammation
same,"Two-way ANOVA, vehicle control versus Coversin","[6]; Experiment 2 (FIG. 8), males",significant differences
same,"skin inflammation, dose dependence","[6]; Experiment 2 (FIG. 8), males, 125 and 2500 μg/kg 2× daily s.c. from day 5",dose-dependently ameliorated skin inflammation
same,skin inflammation measured by ABSA,"[6]; Experiment 2, 2.5 mg/kg Coversin, vehicle peaked at about 4%",significantly (P<0.01) ameliorated skin inflammation
same,deaths during treatment,"[6]; the two experiments, up to day 12",no deaths
same,Clinical score of experimental EBA,"experimental EBA [7]; Example 4, experiment 1 (FIG. 6A)",ameliorated disease
same,Clinical score of experimental EBA,"experimental EBA [7]; Example 4, experiment 2 (FIG. 6B)",ameliorated disease
same,statistical significance of effect on ABSA,experimental EBA [7]; second experiment (FIG. 6B),statistically significant effect
same,Kd,C5 [8],1 nM
same,"IC50, binding C5 and preventing its cleavage by C5 convertase",C5 [9],approximately 0.02 mg/ml
B1,LTB4 binding,[10],binds LTB4
same,C5 binding,C5 [11],does not bind C5
